Like-named read-outs stand apart in the source and are kept apart here.
Experiments:
human thrombin [1] = target: T1, human thrombin (Homo sapiens, UniProt P00734); experiment: Thrombin-induced fibrinogen polymerization; format: biochemical; parameters: Thrombin, also known as an active plasma coagulation factor II; purchased Sigma-Aldrich Chemical Co. (St. Louis, MO, USA) T7009; settings: thrombin preincubated with compound
Experimental: In these preparations, to nine volumes of thrombin one volume of polyphenolic compounds was added (final thrombin concentration was 15.8 nM). All tested compounds were dissolved in 50 % DMSO to the initial concentration of 10 mM; other solutions of compounds were also prepared in 50 % DMSO (prepared in 50 mM TBS, pH 7.4). […] Polymerization of fibrin was monitored at 595 nm using a 96-well microtiter plate reader. To each reaction well of the microtiter plate, 100 μl of fibrinogen (3 mg/ml) in 50 mM TBS and 5 mM CaCl2, pH 7.4, were added. […] The maximal velocity of the polymerization process (V max, Δm OD/min) for each absorbance curve was determined (Nowak et al., [2007]).

human thrombin [2] = target: T1, human thrombin; experiment: SDS-PAGE analysis of thrombin-induced cross-linked fibrin formation; format: biochemical; parameters: Thrombin, also known as an active plasma coagulation factor II; purchased Sigma-Aldrich Chemical Co. (St. Louis, MO, USA) T7009; host or cells: purified from human plasma
Experimental: In these preparations, to nine volumes of thrombin one volume of polyphenolic compounds was added (final thrombin concentration was 15.8 nM). All tested compounds were dissolved in 50 % DMSO to the initial concentration of 10 mM; other solutions of compounds were also prepared in 50 % DMSO (prepared in 50 mM TBS, pH 7.4). The final concentration of DMSO in thrombin samples was 5 %. To prepare thrombin control samples, the same volume of solvent (50 % DMSO prepared in 50 mM TBS, pH 7.4) was added as in the case of the compound volume and warmed for 10 min to 37 °C.
The reactions incubated at 37 °C were stopped after 5, 15 and 30 min by adding 150 μl of lysis buffer (0.125 M Tris/HCl, 4 % SDS, 8 M urea, 10 % β-mercaptoethanol, pH 6.8). Samples were subjected to SDS-PAGE (polyacrylamide concentration—7.5 %) using Mini-Protean Electrophoresis Cell (Bio-Rad, Hercules, CA). Proteins were stained with Coomassie Brilliant Blue R250 (CBB).

human thrombin [3] = experiment: Thrombin-induced platelet aggregation (turbidimetric); format: cell-based; settings: compound 50 μM preincubated with thrombin
Experimental: Blood samples in 0.32 % sodium citrate from healthy volunteers without cardiovascular disorders were collected, untreated with antiplatelet drugs. […] Platelets were isolated from PRP using BSA–Sepharose 2B gel filtration method according to Walkowiak et al. ([2000]). […] In these preparations, to nine volumes of thrombin one volume of polyphenolic compounds was added (final thrombin concentration was 15.8 nM). All tested compounds were dissolved in 50 % DMSO to the initial concentration of 10 mM; other solutions of compounds were also prepared in 50 % DMSO (prepared in 50 mM TBS, pH 7.4). […] The platelet aggregation was measured by turbidimetric method (Saluk-Juszczak et al., [2007]) using dual-channel Chrono-log optical aggregometer (Chronolog, USA). […] Platelet suspensions were pre-warmed at 37 °C with stirring.

human thrombin [4] = target: T1, human thrombin; experiment: Analysis of thrombin inhibition parameters (Lineweaver–Burk curves); format: biochemical; parameters: Thrombin, also known as an active plasma coagulation factor II; purchased Sigma-Aldrich Chemical Co. (St. Louis, MO, USA) T7009
Experimental: Absorbance was monitored every 12 s for 10 min in a 96-well microplate reader. The velocity of reaction was expressed as the increase in product (pNA) over time (∆ μmol/min) using a computer program Mikcroplate Manager® 8 and the extinction coefficient of p-nitroaniline. […] Then, the Lineweaver–Burk ([1934]) curves for thrombin in the presence and in the absence of polyphenol compounds were plotted. The Lineweaver–Burk equation, which is a transformation of the Michaelis–Menten model, looks as follows: 1/V=Km/Vmax·1/[S]+1/Vmax

[5] = parameters: method as in Mozzicafreddo et al. ([2006]); settings: ref Mozzicafreddo et al. ([2006]); cited from earlier work
human thrombin [6] = target: T1, human thrombin; experiment: BIAcore (SPR) analysis of binding to immobilized thrombin; parameters: Thrombin, also known as an active plasma coagulation factor II; purchased Sigma-Aldrich Chemical Co. (St. Louis, MO, USA) T7009
Experimental: The biosensor assays were performed using the BIAcore 1000 biosensor system. All biosensor analyses were performed with a phosphate-buffered saline (PBS), pH 7.4, as a running buffer. […] The immobilization of thrombin on a biosensor carboxylmethyl dextran surface was performed according to the BIA applications Handbook (BIAcore, [1994]). The process of protein immobilization was performed on a sensor chip CM5 surface by the positively charged functional groups of protein amino acids. The immobilization process consisted of four steps: preconcentration, activation, ligand immobilization and deactivation of the residual NHS esters. […] The temperature during the whole experiment was also constant and was set to 25.0 °C. […] Each of these solutions (10 μl) was injected into an empty sensor chip channel. […] The amount of injected activation mixture was modified, to regulate the amount of immobilized ligand. […] The conditions of the latter experiments were established by numerous pre-tests. The assessed parameters included: the buffer flow rate, the volume of analyte injection, the concentration of analytes, types and concentration of regenerators. […] For each injection of analyte solution, the volume used was 100 μl. After injection of analyte was completed, the dissociation step occurred and the level of the interaction ligand-analyte was measured. During dissociation, the particles non-covalently bound to the ligand were washed out from the working channel. […] To do these calculations, the formulas presented below were used: the association rate […]]; the dissociation rate -d[AB]/dt=kd·[AB]; the equilibrium constants: KA=[AB]/[A]·[B]=ka/kd KD=[A]·[B]/[AB]=kd/ka.

## O=c1c(O)c(-c2ccc(O)c(O)c2)oc2cc(O)cc(O)c12 [Quercetin, quercetin]
Human thrombin [1]; 10 min 37 °C
  Effect on thrombin ability to induce fibrinogen polymerization: inhibition of thrombin ability to induce fibrinogen polymerization
Human thrombin [1]; Vmax of fibrinogen polymerization at 595 nm
  Concentration causing total inhibition of thrombin activity (fibrin polymerization): 50 µM
Human thrombin [2]; at IC50 concentration of amidolytic inhibition: cyanidin […], quercetin 1.5 μM
  Effect on formation of γ–γ chains and α-polymers: also inhibited the formation of γ–γ chains and α-polymers
Human thrombin [2]; ten times IC50: cyanidin […], quercetin 15 μM, silybin 250 μM
  Effect on formation of γ–γ chains and α-polymers: significantly inhibited the formation of γ–γ chains and α-polymers
Human thrombin [3]
  Platelet aggregation, % of control: 4%
Human thrombin [4]; compound at IC50 concentration, k cat = V max/E 0, control 29.1
  k cat: 27.8 s⁻¹
Human thrombin [4]; from Lineweaver–Burk curves
  Type of inhibition: competitive inhibitors
Human thrombin [4]; thrombin incubated with compound at IC50 concentration, control 30.7
  V max of chromogenic substrate hydrolysis by thrombin: 29.4 10^−6 mol/min
Human thrombin [4]; thrombin incubated with compound at IC50 concentration, control 158.7
  K m of chromogenic substrate hydrolysis by thrombin: 633.8 10^−6 M
[5]
  Concentration with anti-clotting effect (prolonged thrombin time): ≥ 100 µM
Human thrombin [6]
  K A, equilibrium association constant: 2.59 × 10^7 M^–1
Human thrombin [6]; 5 sensorgrams, 50 to 1,000 μM
  K A, equilibrium association constant: 2.59e+07 M⁻¹
Human thrombin [6]; 5 sensorgrams, 50 to 1,000 μM, read-out: K D, equilibrium dissociation constant
  Kd: 38.7 nM
Human thrombin [6]; 5 sensorgrams, 50 to 1,000 μM, read-out: k a, association rate
  kon: 43.2 M⁻¹ s⁻¹
Human thrombin [6]; 5 sensorgrams, 50 to 1,000 μM, read-out: k d, dissociation rate
  koff: 1.67e-06 s⁻¹
Human thrombin [6]; analyte 1,000 μM, thrombin immobilized on CM5 chip
  Response (RU): 1,882 RU

Reference: paper PMC3939009, “Thrombin inhibitory activity of some polyphenolic compounds” (Medicinal Chemistry Research, 2013)
